The supplement of paper PMC5844555

Experiments:
Assay in all cases: 3' UTR reporter interaction score (median-centred robust z-score of log2 firefly/Renilla activity); higher = less repression of the 3' UTR reporter
Details in all cases: HEK293T; 48 h
BRCA2 = tested on: BRCA2
In short: (§1)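 Using DharmaFECT Duo, HEK293T cells (10,000/well, 96-well plates) were co-transfected with 2.5 pmol miRNA mimic, 100 ng firefly luc2P reporter containing the gene's 3' UTR and 20 ng Renilla pRL-TK control, and dual-luciferase activity was read 48 h later. The interaction score is the log firefly/Renilla ratio as a per-plate robust z-score (median, median absolute deviation), median-centred per miRNA, averaged over at least two independent screens; lower, more negative values indicate interaction.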

EZH2 = tested on: EZH2
In short: as §1

FBXW7 = tested on: FBXW7
In short: as §1

HRAS = tested on: HRAS
In short: as §1

MYB = tested on: MYB
In short: as §1

MYCN = tested on: MYCN
In short: as §1

MYC = tested on: MYC
In short: as §1

MYT1L = tested on: MYT1L
In short: as §1

NOTCH1 = tested on: NOTCH1
In short: as §1

PHF6 = tested on: PHF6
In short: as §1

PHOX2B = tested on: PHOX2B
In short: as §1

RB1 = tested on: RB1
In short: as §1

TP53 = tested on: TP53
In short: as §1

ZEB2 = tested on: ZEB2
In short: as §1

Sequence | 3' UTR reporter interaction score (BRCA2) | 3' UTR reporter interaction score (EZH2) | 3' UTR reporter interaction score (FBXW7) | 3' UTR reporter interaction score (HRAS) | 3' UTR reporter interaction score (MYB) | 3' UTR reporter interaction score (MYCN) | 3' UTR reporter interaction score (MYC) | 3' UTR reporter interaction score (MYT1L) | 3' UTR reporter interaction score (NOTCH1) | 3' UTR reporter interaction score (PHF6) | 3' UTR reporter interaction score (PHOX2B) | 3' UTR reporter interaction score (RB1) | 3' UTR reporter interaction score (TP53) | 3' UTR reporter interaction score (ZEB2)
GCACAUUACACGGUCGACCUCU | -0.107 | -0.1 | 0.52 | -0.25 | 0.761 | 0.192 | -0.285 | -0.0362 | -0.223 | 0.116 | -1.13 | -0.0189 | -0.315 | 1.19
GCCCCUGGGCCUAUCCUAGAA | 0.566 | 0.389 | 0.0138 | -0.133 | 0.244 | 0.221 | -0.282 | -0.294 | -0.931 | 2.01 | -0.0536 | 0.411 | -0.179 | -0.237
GCCUGCUGGGGUGGAACCUGG | 0.403 | -0.39 | -0.733 | -0.0157 | 0.0969 | -0.962 | 0.0868 | -0.443 | -0.0223 | 0.254 | 0.0382 | 1.37 | -0.747 | 0.26
GCGACCCACUCUUGGUUUCCA | -0.537 | 0.786 | 0.92 | -0.85 | 0.396 | 0.0444 | -0.5 | -0.645 | 0.563 | -1.86 | 0.84 | -2.3 | 0.384 | -0.694
GCGACCCAUACUUGGUUUCAG | 0.00941 | 1.08 | 0.104 | -0.348 | 0.445 | 0.527 | -0.469 | -5.03e-17 | 0.351 | -1.74 | -1.24 | -1.26 | -0.0561 | -0.392
GCGAGGACCCCUCGGGGUCUGAC | 0.357 | -0.18 | 0.437 | 0.0816 | 0.547 | -0.654 | -0.466 | -0.47 | -0.131 | -0.251 | 0.436 | 0.707 | 0.0903 | -0.584
GCGUGCGCCGGCCGGCCGCC | 0.432 | 0.589 | 0.516 | -0.392 | -0.399 | -1.25 | -1.82 | -0.142 | -0.272 | 1.71 | 0.436 | -0.23 | 0.961 | -0.647
GCUAGUCCUGACUCAGCCAGU | 4.86e-17 | -0.186 | 0.368 | -0.409 | 0.624 | 0.0989 | -0.713 | 0.167 | -0.242 | -0.0579 | 0.384 | 0.4 | -0.219 | 0.364
GCUGCGCUUGGAUUUCGUCCCC | -0.029 | -0.09 | -0.688 | -0.573 | 0.616 | 0.248 | 0.388 | 0.46 | 2.01 | 0.794 | -1.97 | 1.16 | -0.861 | 0.715
GCUGGGCAGGGCUUCUGAGCUCCUU | -0.0026 | -0.0238 | -0.37 | -0.298 | 0.00877 | 0.117 | -0.481 | -0.4 | -0.244 | 0.53 | 1.06 | 0.659 | -0.0785 | 0.0169
